Series [1] has as its system Pseudomonas aeruginosa (NCIM 5029). The series is described as follows: agar disc diffusion, zone of inhibition. Type of series: cell-based. Particulars: Pseudomonas aeruginosa, NCIM5029; P. aeruginosa; discs 6 mm, test compounds 100 µg/mL in DMSO, standards 10 µg/disc; 37°C 24 h; average of three replicates; read-out: zone of inhibition. Here is the method: (§1) The in vitro antimicrobial screening effects of the compounds (3 and 5a–j) were individually tested against a panel of bacteria and fungi including Staphylococcus aureus (NCIM 5021), Bacillus subtilis (NCIM 2999), Pseudomonas aeruginosa (NCIM 5029), Escherichia coli (NCIM 2574), Candida. albicans (NCIM 3471), and Aspergillus flavus (NCIM 524). Microbial strains were cultured overnight at 37°C in nutrient and potato dextrose agar medium. All the pure microbial strains were obtained from National Chemical Laboratory (NCL), Pune, India.
(§2) The antibacterial activity of compounds was determined by agar disc diffusion method. Briefly, a suspension of tested bacterial strains was spread on the nutrient agar medium and potato dextrose agar for fungi. The discs (6 mm in diameter) impregnated with test chemicals each dissolved in concentration (100 μg/mL in DMSO) were placed on the inoculated agar and these plates were kept at 4°C for 2 h. The plate was incubated at 37°C for 24 h in case of bacteria and 48 h at 28°C in case of fungi. streptomycin (10 μg/disc) and fluconazole (10 μg/disc) were used as the standards for antibacterial and antifungal activity, respectively. All the samples were performed in triplicate and the zone of inhibition was measured in millimeters.

Series [2] has as its system A. niger. The series is described as follows: agar disc diffusion, zone of inhibition. Type of series: cell-based. Particulars: Aspergillus niger; A. niger; discs 6 mm, test compounds 100 µg/mL in DMSO, standards 10 µg/disc; 28°C 48 h; average of three replicates; read-out: zone of inhibition. Here is the method:
[The procedure below names another organism; the source lists this organism under the same test.] as §1, §2

Series [3] deals with Staphylococcus aureus (NCIM 5021). In words: agar disc diffusion, zone of inhibition. Type of series: cell-based. Particulars: Staphylococcus aureus, NCIM5021; S. aureus; discs 6 mm, test compounds 100 µg/mL in DMSO, standards 10 µg/disc; 37°C 24 h; average of three replicates; read-out: zone of inhibition. Here is the method:
as §1, §2

Series [4] relates to Aspergillus flavus (NCIM 524). In words: agar disc diffusion, zone of inhibition. To be noted: Aspergillus flavus, NCIM524; A. flavus; discs 6 mm, test compounds 100 µg/mL in DMSO, standards 10 µg/disc; 28°C 48 h; average of three replicates; read-out: zone of inhibition. Type of series: cell-based. The protocol:
as §1, §2

The subject of series [5] is Escherichia coli (NCIM 2574). In words: agar disc diffusion, zone of inhibition. It is filed as cell-based. To be noted: Escherichia coli, NCIM2574; E. coli; discs 6 mm, test compounds 100 µg/mL in DMSO, standards 10 µg/disc; 37°C 24 h; average of three replicates; read-out: zone of inhibition. Here is the method:
as §1, §2

The subject of series [6] is Bacillus subtilis (NCIM 2999). The series is described as follows: agar disc diffusion, zone of inhibition. Type of series: cell-based. Particulars: Bacillus subtilis, NCIM2999; B. subtilis; discs 6 mm, test compounds 100 µg/mL in DMSO, standards 10 µg/disc; 37°C 24 h; average of three replicates; read-out: zone of inhibition. Here is the method: as §1, §2
The nature of series [7]: superoxide radical scavenging assay (NBT, xanthine-xanthine oxidase system). It is filed as biochemical. Particulars: NBT reduction, pH 7.8, 560 nm, three replicates. Here is the method:
Superoxide radical scavenging activity was measured as described by Kovala-Demertzi et al., (2004). The assay is based on the reduction of nitroblue tetrazolium (NBT) by superoxide ions generated by the xanthine-xanthine oxidase system (X–XO). The reaction system contained 0.2 mM xanthine and 0.6 mM NBT in 0.1 M phosphate buffer, pH 7.8. The tested compounds were dissolved in methanol. The reaction was started by addition of XO (0.07 U mL^−1), an activity which allowed to yield the absorbance change between 0.03 and 0.04 per minute, at 560 nm. The extent of NBT reduction was followed spectrophotometrically, by measuring the increase of the absorbance at 560 nm. All the experiments were replicated three times. The IC50 of each compound was defined as the concentration which inhibited 50% of the NBT reduction by O2 ^•− produced in the X–XO system.
Superoxide anion radical is normally initially formed, and its effects can be magnified because it produces other kinds of free radicals and oxidizing agents. The enzymatic superoxide anion radical was generated by the xanthine/xanthine oxidase reaction system. The production of superoxide was estimated by the nitroblue tetrazolium method. […] Differently, in the m-position, methoxy and hydroxyl groups act as an electron-withdrawing properties, ([…]), which are possible for providing a destabilizing effect.

Series [8] has as its system Pseudomonas aeruginosa (NCIM 5029). The series is described as follows: minimum inhibitory concentration by dilution method. To be noted: Pseudomonas aeruginosa, NCIM5029; P. aeruginosa; dilution method; average of three replicates; read-out: MIC. Type of series: cell-based. Here is the method: as §1
(§3) The minimum inhibitory concentration of the synthesized compounds was determined by dilution method. The compounds were dissolved and then diluted using DMSO; two-fold serial concentrations of the compounds were employed to determine the MIC. In this method, the test concentrations of chemically synthesized compounds were made from 5 to 125 μg/mL.

In series [9] the test system is A. niger. The description is as above. It is filed as cell-based. To be noted: Aspergillus niger; A. niger; dilution method; average of three replicates; read-out: MIC. Here is the method:
[The procedure below names another organism; the source lists this organism under the same test.] as §1, §3

Series [10] deals with Staphylococcus aureus (NCIM 5021). Described as above. Type of series: cell-based. Particulars: Staphylococcus aureus, NCIM5021; S. aureus; dilution method; average of three replicates; read-out: MIC. The protocol:
as §1, §3

Series [11] deals with Aspergillus flavus (NCIM 524). Described as above. Type of series: cell-based. Particulars: Aspergillus flavus, NCIM524; A. flavus; dilution method; average of three replicates; read-out: MIC. Here is the method:
as §1, §3

The test system of series [12] is Escherichia coli (NCIM 2574). Described as above. Type of series: cell-based. Particulars: Escherichia coli, NCIM2574; E. coli; dilution method; average of three replicates; read-out: MIC. The protocol:
as §1, §3

For series [13], the system named is Bacillus subtilis (NCIM 2999). The description is as above. It is filed as cell-based. Particulars: Bacillus subtilis, NCIM2999; B. subtilis; dilution method; average of three replicates; read-out: MIC. Here is the method:
as §1, §3

Series [14] can be described thus: DPPH free radical scavenging activity. Particulars: DPPH 0.1 mM, absorbance at 517 nm; triplicate, mean ± SD. Here is the method: The capacity to scavenge the stable free radical 2,2-diphenyl-1-picrylhydrazyl (DPPH) was monitored according to the Blois method. The test samples (10–100 μL) were mixed with 1 mL of DPPH (0.1 mM) solution and filled up with methanol to a final volume of 4 mL. Absorbance of the resulting solution was measured at 517 nm in a visible spectrophotometer (Model 166, Systronics, India). The free radical scavenging rate of the reaction solution was calculated as a percentage (%) of DPPH decolouration using the equation (1) I(%)=(Ablank−Asample/Ablank)×100, where A blank is the absorbance of the control reaction mixture excluding the test compounds, and A sample is the absorbance of the test compounds. Radical scavenging potential was expressed as IC50 value, which represents the sample concentration at which 50% of the DPPH radicals were scavenged. Tests were carried out in triplicate and the results were expressed as mean values ± standard deviations.
DPPH radical scavenging activity evaluation is a standard assay in antioxidant activity studies and offers a rapid technique for screening the radical scavenging activity of specific compounds [24]. The free radical scavenging activity of newly synthesized compounds was tested by their ability to bleach the stable radical DPPH. The activity was monitored by following the absorption at 517 nm in a visible spectrophotometer. In the presence of any free radical scavenger, this odd electron pairs up and causes the diminishing of absorption band which is proportional to the number of electrons taken up. The activity was studied at different concentrations for each compound. […] Resulting from a color change from purple to yellow the absorbance decreased when the antioxidant molecule can quench DPPH free radical through donation of hydrogen atom or by electron donating to form a stable DPPH molecule.

≈ marks a conversion by molar mass, not a printed value.

The compound `CC(=O)N(C(=O)c1ccccc1C)c1ccc(N=Cc2cc3ccccc3o2)cc1` [Compound 5f, N-acetyl-N-(4-((benzofuran-2-ylmethylene)amino)phenyl)-2-methylbenzamide] came in with a melting point of 187 °C. In addition, the zone of inhibition at 100 µg/mL in series [1] was 10 mm. Further, the zone of inhibition at 100 µg/mL with A. niger [2] came to 12 mm. Moreover, the zone of inhibition at 100 µg/mL in [3] is 10 mm. Besides, the zone of inhibition at 100 µg/mL in series [4] was determined as 10.2 mm. Further, the zone of inhibition at 100 µg/mL in series [5] was found to be 11 mm. Also, the zone of inhibition at 100 µg/mL in series [6] was found to be 8 mm. Also, the “IC50 Superoxide” value in [7] is reported as 49 ± 0.17 µg/mL (≈ 124 µM). For the same compound, the MIC in [8] stood at 100 µg/mL (≈ 252 µM). In addition, the MIC in the series on A. niger [9] turned out to be 100 µg/mL (≈ 252 µM). For the same compound, in series [10], the MIC amounted to 50 µg/mL (≈ 126 µM). In addition, the MIC in [11] came out at 75 µg/mL (≈ 189 µM). Besides, the MIC in series [12] is 100 µg/mL (≈ 252 µM). The MIC in series [13] was found to be 50 µg/mL (≈ 126 µM). Besides, the “IC50 DPPH” value in series [14] amounted to 53 ± 0.04 µg/mL (≈ 134 µM).
Take `CC(=O)N(C(=O)Cc1ccccc1)c1ccc(N=Cc2cc3ccccc3o2)cc1` [Compound 5b, N-acetyl-N-(4-((benzofuran-2-ylmethylene)amino)phenyl)-2-phenylacetamide]: the melting point is 193 °C. Besides, the zone of inhibition at 100 µg/mL in [1] was 11 mm. Besides, the zone of inhibition at 100 µg/mL in the series with A. niger [2] stood at 12 mm. Besides, the zone of inhibition at 100 µg/mL in [3] is 10 mm. The zone of inhibition at 100 µg/mL in [4] came out at 15 mm. In series [5], the zone of inhibition at 100 µg/mL was determined as 10 mm. Further, the zone of inhibition at 100 µg/mL in [6] was 10 mm. In addition, the “IC50 Superoxide” value in series [7] is listed as 92.0 ± 0.35 µg/mL (≈ 232 µM). Moreover, in series [8], the MIC amounted to 30 µg/mL (≈ 75.7 µM). Also, the MIC in the series with A. niger [9] was 25 µg/mL (≈ 63.1 µM). The MIC in series [10] turned out to be 50 µg/mL (≈ 126 µM). Further, the MIC in series [11] worked out at 25 µg/mL (≈ 63.1 µM). Besides, the MIC in series [12] came out at 50 µg/mL (≈ 126 µM). The MIC in series [13] was found to be 30 µg/mL (≈ 75.7 µM). In addition, the “IC50 DPPH” value in series [14] amounted to 85.3 ± 0.14 µg/mL (≈ 215 µM).

The record behind these values is article PMC3767324, “Synthesis, Characterization, and BSA Binding Studies of Some New Benzamides Related to Schiff Base” (ISRN Organic Chemistry, 2013).
